Assay results taken from ChEMBL document CHEMBL1126915, “Solvent-dependent conformation and hydrogen-bonding capacity of cyclosporin A: evidence from partition coefficients and molecular dynamics simulations” (J Med Chem, 1993).

Experiments:
Conditions in all cases: octanol/water
physchem [1] = assay: physchem
Description: Partition coefficient (logP)

physchem [2] = assay: physchem; remark: listed apart in the source
Description: Partition coefficient (logP)

[3] = Partition coefficient of compound was measured in heptane/water system

Row | SMILES | logP (physchem [1]) | logP (physchem [2]) | Log Phep [3]
1 | CC(=O)Nc1ccccc1F | 0.96 | 0.96 | -0.69
2 | NC(=O)c1ccccc1 [BENZAMIDE] | – | – | -2.45
3 | O=C1N[C@@H](Cc2ccccc2)C(=O)N[C@H]1Cc1ccccc1 | 2.86 | 1.59 | < -3
4 | CC(=O)Nc1ccc(F)cc1 | 1.61 | 1.47 | -1.57
5 | O=C1N[C@H](Cc2ccc(O)cc2)C(=O)N[C@H]1Cc1c[nH]c2ccccc12 | 2.19 | 1.05 | < -3
6 | NC(=O)c1ccccc1F | 0.5 | 0.64 | -1.47
7 | Oc1ccccc1 [PHENOL] | – | – | -0.82
8 | O=[N+]([O-])c1ccccc1O [NITROPHENOLATE] | 1.85 | 1.68 | 1.04
9 | NC(=O)c1ccc(F)cc1 | 1 | 0.96 | -2.34
10 | O=[N+]([O-])c1ccc(O)cc1 [P-NITROPHENOL] | 1.85 | 1.77 | -2.11
11 | CC(=O)Nc1ccccc1 [ACETANILIDE] | – | – | -1.54
